Experiment [1] is described as follows: Cellular growth inhibition, T-Rex 293 SC cells with doxycycline (progesterone receptor isoform B induced), Example 47. The format is cell-based. As to conditions: progesterone receptor isoform B induced with 10 ng/mL doxycycline, 72 hours, CellTiter-Glo 2.0, Table 14 (Example 47). As to the method: The following types of cells were prepared for this experiment: (i) a T-Rex 293 cell line having increased expression of progesterone receptor isoform B protein due to exposure to doxycycline and (ii) a T-Rex 293 cell line lacking increased expression of progesterone receptor isoform B protein. Ability of the test compounds to inhibit proliferation of the foregoing cell types was evaluated according to the procedures set forth below.
The doxycycline-inducible progesterone receptor isoform B protein expressing cell line was established using the following protocol: T-Rex 293 cells were purchased from Invitrogen (Cat #R71007) and transfected using Lipofectamine 2000 with the wild-type progesterone receptor B protein sequence cloned into the pcDNA4/TO vector. Transfected cells were selected using 400 μg/mL Zeocin (Invitrogen Cat #R25001). Following selection, single clones were raised and maintained in Dulbecco's Modified Eagle Medium (DMEM) supplemented with 10% w/w Tetracycline-free fetal bovine serum (FBS) and 250 μg/mL Zeocin. Clones were analyzed for expression of progesterone receptor isoform B protein in the presence and absence of 10 ng/mL doxycycline (Sigma Cat #D9891), and a single doxycycline-inducible clone (hereinafter “SC”) was selected for use in downstream assays.
The SC cells were seeded on poly-D-lysine coated, black clear-bottom 384-well plates at 2500/well, in 25 μL Phenol Red Free Dulbecco's Modified Eagle Medium (DMEM) supplemented with 10% w/w charcoal-dextran treated fetal bovine serum (FBS) and 1% w/w pen-strep, with or without 10 ng/mL doxycycline. Pen-Strep is a commercially available mixture of penicillin G and streptomycin, which is used in mammalian cell culture media to prevent bacterial contamination. Phenol Red Free Dulbecco's Modified Eagle Medium (DMEM) supplemented with 10% w/w charcoal-dextran treated fetal bovine serum (FBS) and 1% w/w pen-strep, with or without 10 ng/mL doxycycline is herein referred to as Treatment Medium. Following seeding of cells in the plates, the plates were spun at 300×g for 30 seconds, then equilibrated to room temperature for 30 minutes, and then deposited in a humidified tissue culture incubator maintained at 37° C. with 5% CO2.
At 24 hours after seeding of the cells, dilutions of test compound were prepared in DMSO and dissolved in Treatment Medium, to achieve a final DMSO concentration of 0.5% w/w, thereby providing the Test Compound Solution. A 25 μL aliquot of the Test Compound Solution was added to cells in the well plates. An equal volume of a solution containing DMSO and Treatment Medium was used as a negative control. Following treatment of cells with Test Compound Solution or said equal volume of a solution containing DMSO and Treatment Medium, the plates were spun at 300×g for 30 seconds, and then left in an incubator for 72 hours.
At the end of the treatment duration, cell viability was quantified with CellTiter-Glo 2.0 reagent (Promega Cat #G9243). For this purpose, plates were equilibrated to room temperature for 30 minutes, and then 25 μL of CellTiter-Glo 2.0 reagent was added to cells in the plate wells. Plates were then agitated on a shaker for two minutes at 500 rpm and subsequently incubated at room temperature for 10 minutes. Following incubation, the plates were spun at 3000×g for 30 seconds, then sealed with an optical adhesive cover, and luminescence readings were measured with an EnVision Plate Reader (Perkin Elmer).
Data was normalized using zero luminescence for baseline. A four-parameter non-linear regression curve fit was applied to dose-response data in GraphPad Prism data analysis software to determine the half-maximal growth inhibitory concentration (GI50) for each test compound.

Experiment [2] has as its target T1, progesterone receptor ligand binding domain (LBD) (Homo sapiens, UniProt P06401).
T1 construct: GST-tagged PR LBD, Fluormone tracer, and compound were mixed; purchased Life Technologies A15905 or a15906
T1 sequence (P06401 679-913 limits assumed): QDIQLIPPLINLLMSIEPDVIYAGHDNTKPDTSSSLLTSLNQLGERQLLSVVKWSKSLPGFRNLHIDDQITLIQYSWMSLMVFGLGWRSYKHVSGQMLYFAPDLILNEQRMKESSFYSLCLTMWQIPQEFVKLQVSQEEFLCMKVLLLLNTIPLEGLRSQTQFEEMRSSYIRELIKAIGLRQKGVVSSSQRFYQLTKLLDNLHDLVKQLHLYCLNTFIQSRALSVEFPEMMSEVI
Put plainly: FP assay (PolarScreen Progesterone Receptor Competitor Assay) for binding to progesterone receptor LBD. The conditions noted are these: GST-tagged PR LBD, Fluormone tracer, fluorescence polarization, 2 hours; Table 17. As to the method: Compounds were tested using the PolarScreen™ Progesterone Receptor Competitor Assay Kit (Life Technologies Cat #A15905 or a15906), as per the manufacturer's instructions. Briefly, GST-tagged PR LBD, Fluormone tracer, and compound were mixed and incubated for 2 hours at room temperature in the dark. Following incubation, the plates were spun at 3000×g for 30 seconds, then sealed with an optical adhesive cover, and fluorescence polarization was measured using appropriate excitation and emission filters with an EnVision Plate Reader (Perkin Elmer). Compound concentration vs. mP value were plotted in Prism (GraphPad). A four-parameter non-linear regression curve fit was applied to dose-response data to determine the half-maximal inhibitory concentration (IC50) for each test compound.

The structures appear in SMILES notation. Some results are limits rather than exact numbers.

For the compound `Cc1sc2c(c1C)C(c1ccc(Cl)cc1)=N[C@@H](CC(=O)NCCOCCOCCOCCOCCN(C)c1ncc(C(=O)N[C@H]3C(C)(C)[C@H](Oc4ccc(C#N)c(Cl)c4)C3(C)C)cn1)c1nnc(C)n1-2` [Compound I-3, N-((1r,3r)-3-(3-chloro-4-cyanophenoxy)-2,2,4,4-tetramethylcyclobutyl)-2-((1-((S)-4-(4-chlorophenyl)-2,3,9-trimethyl-6H-thieno[3,2-f][1,2,4]triazolo[4,3-a][1,4]diazepin-6-yl)-2-oxo-6,9,12,15-tetraoxa-3-azaheptadecan-17-yl)(methyl)amino)pyrimidine-5-carboxamide], in experiment [1], the GI50 is below 500 nM.

As to `Cc1sc2c(c1C)C(c1ccc(Cl)cc1)=N[C@@H](CC(=O)NCCOCCOCCOCCOCCOCCOCCN(C)c1ncc(C(=O)N[C@H]3C(C)(C)[C@H](Oc4ccc(C#N)c(Cl)c4)C3(C)C)cn1)c1nnc(C)n1-2` [Compound I-4], the GI50 in experiment [1] is below 500 nM.

`Cc1sc2c(c1C)C(c1ccc(Cl)cc1)=N[C@@H](CC(=O)NCCOC1CCN(c3ncc(C(=O)N[C@H]4C(C)(C)[C@H](Oc5ccc(C#N)c(Cl)c5)C4(C)C)cn3)CC1)c1nnc(C)n1-2` [Compound I-6] registered a GI50 in experiment [1] below 500 nM.

`Cc1sc2c(c1C)C(c1ccc(Cl)cc1)=N[C@@H](CC(=O)NCCOCCOCCOCCOCCOC1CCN(c3ncc(C(=O)N[C@H]4C(C)(C)[C@H](Oc5ccc(C#N)c(Cl)c5)C4(C)C)cn3)CC1)c1nnc(C)n1-2` [Compound I-8] returned a GI50 in experiment [1] below 500 nM.

In turn, `Cc1sc2c(c1C)C(c1ccc(Cl)cc1)=N[C@@H](CC(=O)NCCOCCOCCOCCOC1CCN(c3ncc(C(=O)N[C@H]4C(C)(C)[C@H](Oc5ccc(C#N)c(Cl)c5)C4(C)C)cn3)CC1)c1nnc(C)n1-2` [Compound I-11] gave a GI50 in experiment [1] below 500 nM.

In experiment [1], `Cc1sc2c(c1C)C(c1ccc(Cl)cc1)=N[C@H](CC(=O)NCCOCCOCCOCCOC1CCN(c3ncc(C(=O)N[C@H]4C(C)(C)[C@H](Oc5ccc(C#N)c(Cl)c5)C4(C)C)cn3)CC1)c1nnc(C)n1-2` [Compound I-13] had a GI50 below 500 nM.

In turn, `Cc1sc2c(c1C)C(c1ccc(Cl)cc1)=N[C@H](CC(=O)NCCOCCOCCOCCOCCOC1CCN(c3ncc(C(=O)N[C@H]4C(C)(C)[C@H](Oc5ccc(C#N)c(Cl)c5)C4(C)C)cn3)CC1)c1nnc(C)n1-2` [Compound I-14] returned a GI50 in experiment [1] below 500 nM.

For the compound `Cc1sc2c(c1C)C(c1ccc(Cl)cc1)=N[C@@H](CC(=O)NCCOCCOCCOCC1CCN(c3ncc(C(=O)N[C@H]4C(C)(C)[C@H](Oc5ccc(C#N)c(Cl)c5)C4(C)C)cn3)CC1)c1nnc(C)n1-2` [Compound I-17], in experiment [1], the GI50 is 500 to 1500 nM.

The compound `Cc1sc2c(c1C)C(c1ccc(Cl)cc1)=N[C@H](CC(=O)NCCOCCOCCOCCOCCN(C)c1ncc(C(=O)N[C@H]3C(C)(C)[C@H](Oc4ccc(C#N)c(Cl)c4)C3(C)C)cn1)c1nnc(C)n1-2` [Compound I-19] had a GI50 in experiment [1] of 500 to 1500 nM.

`CCNC(=O)C[C@@H]1N=C(c2ccc(CCCN(C)c3ncc(C(=O)N[C@H]4C(C)(C)[C@H](Oc5ccc(C#N)c(Cl)c5)C4(C)C)cn3)cc2)c2c(sc(C)c2C)-n2c(C)nnc21` [Compound I-104]: in experiment [2], the IC50 was in the range of 50 to 500 nM.

In the case of `CCNC(=O)C[C@@H]1N=C(c2ccc(N3CCN(CC4CCN(c5ncc(C(=O)N[C@H]6C(C)(C)[C@H](Oc7ccc(C#N)c(Cl)c7)C6(C)C)cn5)CC4)CC3)cc2)c2c(sc(C)c2C)-n2c(C)nnc21` [Compound I-105, N-[3-(3-chloro-4-cyano-phenoxy)-2,2,4,4-tetramethyl-cyclobutyl]-2-[4-[[4-[4-[(9S)-9-[2-(ethylamino)-2-oxo-ethyl]-4,5,13-trimethyl-3-thia-1,8,11,12-tetrazatricyclo[8.3.0.02,6]trideca-2(6),4,7,10,12-pentaen-7-yl]phenyl]piperazin-1-yl]methyl]-1-piperidyl]pyrimidine-5-carboxamide], the IC50 in experiment [2] was in the range of 50 to 500 nM.

As to `CCNC(=O)C[C@@H]1N=C(c2ccc(N(C3CC3)C3CN(CC4CCN(c5ncc(C(=O)N[C@H]6C(C)(C)[C@H](Oc7ccc(C#N)c(Cl)c7)C6(C)C)cn5)CC4)C3)cc2)c2c(sc(C)c2C)-n2c(C)nnc21` [Compound I-129], the IC50 in experiment [2] was below 50 nM.

`CCNC(=O)C[C@@H]1N=C(c2ccc(N(C)C3CC(OC4CCN(c5ncc(C(=O)N[C@H]6C(C)(C)[C@H](Oc7ccc(C#N)c(Cl)c7)C6(C)C)cn5)CC4)C3)cc2)c2c(sc(C)c2C)-n2c(C)nnc21` (stereo partly drawn) [Compound I-130] had an IC50 in experiment [2] below 50 nM.

The compound `Cc1sc2c(c1C)C(c1ccc(OC3CC4(CCN(c5ncc(C(=O)N[C@H]6C(C)(C)[C@H](Oc7ccc(C#N)c(Cl)c7)C6(C)C)cn5)CC4)C3)cc1)=NC(Cc1ncco1)c1nnc(C)n1-2` (stereo partly drawn) [Compound I-166] displayed an IC50 in experiment [2] of 50 to 500 nM.

Regarding `Cc1sc2c(c1C)C(c1ccc(OCCOC3CCN(c4ncc(C(=O)N[C@H]5C(C)(C)[C@H](Oc6ccc(C#N)c(Cl)c6)C5(C)C)cn4)CC3)cc1)=N[C@@H](CC(=O)OC(C)(C)C)c1nnc(C)n1-2` [Compound I-235, tert-butyl 2-((S)-4-(4-(2-((1-(5-(((1r,3r)-3-(3-chloro-4-cyanophenoxy)-2,2,4,4-tetramethylcyclobutyl)carbamoyl)pyrimidin-2-yl)piperidin-4-yl)oxy)ethoxy)phenyl)-2,3,9-trimethyl-6H-thieno[3,2-f][1,2,4]triazolo[4,3-a][1,4]diazepin-6-yl)acetate], the IC50 in experiment [2] was below 50 nM.

These data come from patent US20260062422A1 (Halda Therapeutics OpCo, Inc., priority 2022, published 2026).
